Data published in PMC11911254 (Pharmacological Reports, 2025).
Where “and” joins values, the source holds several entries; their conditions need not be identical. Equal entries are not always repeated.

Assay: Concentration of paracetamol and its metabolites in plasma, CSF and brain cortex by LC-MS/MS
Protocol: Drug injection protocol is illustrated in Fig. 1.
Male and female postnatal P4 pups and 7–8 week-old non-pregnant females were used. […] In combination therapy experiments, this dose was accompanied by one of the 7 other drugs (Table 1). For all experiments, animals were terminally anesthetized 30 min after the drug injection using inhaled isoflurane (IsoFlo 100% w/w, Abbott Laboratories), and blood, CSF, and brain samples were collected. Blood was collected directly from the right cardiac ventricle, CSF from the cisterna magna, and cortical brain samples from the frontal/parietal lobes dorsal to the lateral ventricles as described previously.
Pregnant E19 dams were anesthetized with ip urethane injection (25% w/v urethane, Sigma, 1 ml/100 g body weight) and placed on a 39 °C heating pad in the supine position. An endotracheal catheter was inserted to maintain a clear airway. Catheters were inserted into the femoral vein and artery for iv drug administration and arterial blood sampling respectively. The cannula was flushed with 0.5 ml of heparinized saline (Hospira Inc, 5,000 units/ml) after drug administration and following each arterial blood sample. Following drug administration to the dams, fetuses were exteriorized and serially collected starting at 30 min post-maternal injection. […] At collection, the viability of each fetus was assessed (presence of a heartbeat, the colour of the umbilical vessels) and blood, CSF, and brain samples were taken along with a time-matched maternal blood sample from the femoral artery. At the end of the experiment, a final maternal blood sample was taken directly from the left cardiac ventricle, and CSF and brain samples were collected.
This method has been described previously for valproate, lamotrigine, and olanzapine and was applied in the present study. Simultaneous quantification was performed for all compounds in plasma, brain, and CSF samples following the addition of respective stable isotope-labeled internal standards.
Linear response range was determined in untreated control rat plasma for each compound at 0.1, 1, 10, 50, 100, 200, 400, and 800 µg/ml.

[1] = E19 rats, maternal iv paracetamol 15 mg/kg + cimetidine 11 mg/kg (PARA+CIM, n=10), median (IQR)
[2] = E19 rats, maternal iv paracetamol 15 mg/kg + digoxin 0.03 mg/kg (PARA+DIG, n=9), median (IQR)
[3] = E19 rats, maternal iv paracetamol 15 mg/kg + lamotrigine 6 mg/kg (PARA+LTG, n=10), median (IQR)
[4] = E19 rats, maternal iv paracetamol 15 mg/kg + olanzapine 0.15 mg/kg (PARA+OLZ, n=10), median (IQR), all values if <3 detected
[5] = E19 rats, maternal iv paracetamol 15 mg/kg + valproate 30 mg/kg (PARA+VPA, n=10), median (IQR)
[6] = E19 rats, maternal iv paracetamol 15 mg/kg + valproate 30 mg/kg (PARA+VPA, n=10), median (IQR), all values if <3 detected
[7] = E19 rats, maternal iv paracetamol 15 mg/kg monotherapy (PARA, n=10), median (IQR)
[8] = P4 rats, 30 min after ip paracetamol 15 mg/kg + cimetidine 11 mg/kg (PARA+CIM, n=4), median (IQR)
[9] = P4 rats, 30 min after ip paracetamol 15 mg/kg + digoxin 0.03 mg/kg (PARA+DIG, n=4), median (IQR)
[10] = P4 rats, 30 min after ip paracetamol 15 mg/kg + fluvoxamine 1.5 mg/kg (PARA+FLX, n=4), median (IQR)
[11] = P4 rats, 30 min after ip paracetamol 15 mg/kg + fluvoxamine 1.5 mg/kg (PARA+FLX, n=4), median (IQR) or individual values
[12] = P4 rats, 30 min after ip paracetamol 15 mg/kg + lithium 3.2 mg/kg (PARA+Li, n=4), median (IQR)
[13] = P4 rats, 30 min after ip paracetamol 15 mg/kg + olanzapine 0.15 mg/kg (PARA+OLZ, n=4), median (IQR)
[14] = P4 rats, 30 min after ip paracetamol 15 mg/kg monotherapy (PARA, n=4), median (IQR)
[15] = non-pregnant adult rats, 30 min after ip paracetamol 15 mg/kg + fluvoxamine 1.5 mg/kg (PARA+FLX, n=4), median (IQR)
[16] = non-pregnant adult rats, 30 min after ip paracetamol 15 mg/kg + fluvoxamine 1.5 mg/kg (PARA+FLX, n=4), median (IQR), individual values if <3 samples
[17] = non-pregnant adult rats, 30 min after ip paracetamol 15 mg/kg + olanzapine 0.15 mg/kg (PARA+OLZ, n=4), median (IQR)
[18] = non-pregnant adult rats, 30 min after ip paracetamol 15 mg/kg monotherapy (PARA, n=6), median (IQR)
[19] = P4 rats, 30 min after ip paracetamol 15 mg/kg + lamotrigine 6 mg/kg (PARA+LTG, n=5), median (IQR)
[20] = P4 rats, 30 min after ip paracetamol 15 mg/kg + valproate 30 mg/kg (PARA+VPA, n=4), median (IQR) or individual values
[21] = non-pregnant adult rats, 30 min after ip paracetamol 15 mg/kg + digoxin 0.03 mg/kg (PARA+DIG, n=3), median (IQR)
[22] = non-pregnant adult rats, 30 min after ip paracetamol 15 mg/kg + lamotrigine 6 mg/kg (PARA+LTG, n=3), median (IQR), individual values if <3 samples

With `CC(=O)Nc1ccc(O[C@@H]2O[C@H](C(=O)O)[C@@H](O)[C@H](O)[C@H]2O)cc1` [Paracetamol-Glucuronide, paracetamol-glucuronide] as the compound, how does the “Concentration in CSF” value [1] read?
The value was “N.D. (N.D. (not detected) are values <0.01μg/ml)”.

And the Concentration in brain [1]?
Its Concentration in brain is “N.D. (N.D. (not detected) are values <0.01μg/ml)”.

And the “Concentration in CSF” value [2]?
The value was 0.2 µg/mL.

What about the Concentration in brain [2] of the same compound?
Its Concentration in brain is 0.5 µg/mL.

And the “Concentration in CSF” value [3]?
Its value is “N.D. (N.D. (not detected) are values <0.01μg/ml)”.

And the Concentration in brain [3]?
Its Concentration in brain is “N.D. (N.D. (not detected) are values <0.01μg/ml)”.

What about the Concentration in brain [4] of the same compound?
The Concentration in brain was 0.7 µg/mL.

And the “Concentration in CSF” value [5]?
The value was “N.D. (N.D. (not detected) are values <0.01μg/ml)”.

What about the Concentration in brain [6] of the same compound?
Its Concentration in brain is “N.D. (N.D. (not detected) are values <0.01μg/ml)”.

And the “Concentration in CSF” value [7]?
Its value is “N.D. (N.D. (not detected) are values <0.01μg/ml)”.

And the Concentration in brain [7]?
Its Concentration in brain is “N.D. (N.D. (not detected) are values <0.01μg/ml)”.

What about the “Concentration in CSF” value [8] of the same compound?
Its value is 0.2 (0.04) µg/ml.

What about the “Concentration in CSF” value [9] of the same compound?
The value was 0.1 (0.03) µg/ml.

What about the Concentration in brain [9] of the same compound?
The Concentration in brain was 0.1 µg/mL.

And the “Concentration in CSF” value [10]?
The value was 0.2 (2) µg/ml.

What about the Concentration in brain [11] of the same compound?
Its Concentration in brain is 0.1 µg/mL.

What about the “Concentration in CSF” value [12] of the same compound?
Its value is 0.1 (0.05) µg/ml.

What about the Concentration in brain [12] of the same compound?
The Concentration in brain was 0.2 µg/mL.

What about the “Concentration in CSF” value [13] of the same compound?
The value was 0.5 µg/mL.

And the “Concentration in CSF” value [14]?
The value was 0.2 (0.1) µg/ml.

And the “Concentration in CSF” value [15]?
Its value is 0.05 (0.04) µg/ml.

What about the Concentration in brain [16] of the same compound?
The Concentration in brain was 0.2 µg/mL and 1 µg/mL.

What about the “Concentration in CSF” value [17] of the same compound?
The value was 0.1 µg/mL.

And the Concentration in brain [17]?
Its Concentration in brain is 0.1 µg/mL.

What about the Concentration in brain [18] of the same compound?
Its Concentration in brain is 2.0 µg/mL.

And the “change in plasma concentration following combination therapy” value (rat, in vivo)?
The value was “no significant changes”.

What does the source list for `CC(=O)Nc1ccc(OS(=O)(=O)O)cc1` [Paracetamol-Sulfate, paracetamol-sulfate]?
Concentration in CSF [1]: 0.06 (0.04) µg/ml; Concentration in brain [1]: 0.02 (0.02) µg/ml; Concentration in CSF [2]: 0.05 (0.04) µg/ml; Concentration in brain [2]: 0.01 (0.01) µg/ml; Concentration in plasma [2]: 0.9 (0.4) µg/ml; Concentration in plasma (E19 rats, maternal iv paracetamol 15 mg/kg + digoxin 0.03 mg/kg (PARA+DIG, n=9), median (IQR), listed as paracetamol-sulfate): 0.9 µg/mL; Concentration in CSF [3]: 0.08 (0.05) µg/ml; Concentration in brain [3]: 0.02 (0.02) µg/ml; Concentration in plasma [3]: 1.1 (0.4) µg/ml; Concentration in plasma (E19 rats, maternal iv paracetamol 15 mg/kg + olanzapine 0.15 mg/kg (PARA+OLZ, n=10), median (IQR)): 1.4 (0.5) µg/ml; Concentration in CSF [4]: 0.09 (0.06) µg/ml; Concentration in brain [4]: 0.05 (0.03) µg/ml; Concentration in CSF [5]: 0.06 (0.03) µg/ml; Concentration in plasma [6]: 0.9 (0.3) µg/ml; Concentration in plasma (E19 rats, maternal iv paracetamol 15 mg/kg + valproate 30 mg/kg (PARA+VPA, n=10), median (IQR), all values if <3 detected, listed as paracetamol-sulfate): 0.9 µg/mL; Concentration in CSF [7]: 0.09 (0.05) µg/ml; Concentration in brain [7]: 0.04 (0.03) µg/ml; Concentration in plasma [7]: 1.5 (0.4) µg/ml; Concentration in plasma (E19 rats, maternal iv paracetamol 15 mg/kg monotherapy (PARA, n=10), median (IQR), listed as paracetamol-sulfate): 1.5 µg/mL; Concentration in plasma (P4, monotherapy and combination therapy with any of the drugs investigated): around 5 µg/ml; Concentration in CSF [8]: 0.1 (0.02) µg/ml; Concentration in brain [8]: 0.06 (0.02) µg/ml; Concentration in plasma [8]: 7.5 (1.7) µg/ml; Concentration in CSF [9]: 0.1 (0.02) µg/ml; Concentration in brain [9]: 0.07 (0.04) µg/ml; Concentration in plasma [9]: 7.6 (3.3) µg/ml; Concentration in CSF [10]: 0.1 (1.6) µg/ml; Concentration in plasma [10]: 5.7 (1.4) µg/ml; Concentration in brain [11]: 0.04 µg/mL and 0.05 µg/mL; Concentration in CSF [19]: 0.07 (0.02) µg/ml; Concentration in brain [19]: 0.06 (0.02) µg/ml; Concentration in plasma [19]: 3.8 (0.9) µg/ml; Concentration in CSF [12]: 0.1 (0.04) µg/ml; Concentration in brain [12]: 0.08 (0.01) µg/ml; Concentration in plasma [12]: 7.2 (1.2) µg/ml; Concentration in CSF [13]: 0.05 ± 0.02 µg/mL; Concentration in brain [13]: 0.02 µg/mL; Concentration in plasma [13]: 2.7 (1.0) µg/ml; Concentration in CSF (P4 rats, 30 min after ip paracetamol 15 mg/kg + valproate 30 mg/kg (PARA+VPA, n=4), median (IQR)): 0.06 (0.01) µg/ml; Concentration in brain [20]: 0.05 µg/mL; Concentration in plasma [20]: 4.1 (2.1) µg/ml; Concentration in CSF [14]: 0.09 (0.05) µg/ml; Concentration in brain [14]: 0.09 (0.03) µg/ml; Concentration in plasma [14]: 3.1 (1.8) µg/ml; change in plasma concentration following combination therapy (adults, any of the drugs investigated, Kruskal-Wallis test): no significant changes; Concentration in brain (non-pregnant adult rats, 30 min after ip paracetamol 15 mg/kg + cimetidine 11 mg/kg (PARA+CIM, n=3), median (IQR)): 0.2 µg/mL; Concentration in plasma (non-pregnant adult rats, 30 min after ip paracetamol 15 mg/kg + cimetidine 11 mg/kg (PARA+CIM, n=3), median (IQR), individual values if <3 samples): 5.5 (1.4) µg/ml; Concentration in CSF [21]: 0.02 µg/mL; Concentration in plasma [21]: 7.2 (2.2) µg/ml; Concentration in brain (non-pregnant adult rats, 30 min after ip paracetamol 15 mg/kg + digoxin 0.03 mg/kg (PARA+DIG, n=3), median (IQR), individual values if <3 samples): 0.02 µg/mL; Concentration in CSF [15]: 0.07 (0.03) µg/ml; Concentration in plasma [15]: 12.9 (1.0) µg/ml; Concentration in brain [16]: 0.1 (0.4) µg/ml; Concentration in CSF [22]: 0.02 µg/mL and 0.04 µg/mL; Concentration in brain [22]: 0.1 µg/mL; Concentration in plasma [22]: 11.5 (0.7) µg/ml; Concentration in brain [17]: 0.2 (0.2) µg/ml; Concentration in plasma [17]: 14.8 (2.7) µg/ml; Concentration in brain (non-pregnant adult rats, 30 min after ip paracetamol 15 mg/kg + valproate 30 mg/kg (PARA+VPA, n=3), median (IQR)): 0.1 µg/mL; Concentration in plasma (non-pregnant adult rats, 30 min after ip paracetamol 15 mg/kg + valproate 30 mg/kg (PARA+VPA, n=3), median (IQR), individual values if <3 samples): 12.1 (0.4) µg/ml; Concentration in CSF [18]: 0.02 (0.01) µg/ml; Concentration in brain [18]: 0.1 (0.1) µg/ml; Concentration in plasma [18]: 8.8 (5.8) µg/ml
